Measured values taken from PubChem BioAssay (NCI).
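Step 1: Grow cells in 96-well plates. Step 2: Expose to compound for 48 hours at 5 concentrations. Step 3: Interpolate endpoints linearly; if unreached, use highest concentration. At the GI50, growth is halved. Definition used: TGI = concentration required for complete inhibition of growth.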

What was measured:
Experiment in all cases: NCI tumour cell line growth inhibition, 48 h
HCT-116 colon = tested on: HCT-116 colon
HOP-18 NSCLC = tested on: HOP-18 NSCLC
HT29 colon = tested on: HT29 colon
KM20L2 colon = tested on: KM20L2 colon
M19-MEL melanoma = tested on: M19-MEL melanoma
MOLT-4 leukemia = tested on: MOLT-4 leukemia
NCI/ADR-RES ovarian = tested on: NCI/ADR-RES ovarian
P388/ADR leukemia = tested on: P388/ADR leukemia
UACC-257 melanoma = tested on: UACC-257 melanoma
ACHN renal = tested on: ACHN renal
M14 melanoma = tested on: M14 melanoma
SR leukemia = tested on: SR leukemia
RXF-631 renal = tested on: RXF-631 renal

SMILES	TGI (HCT-116 colon)	TGI (HOP-18 NSCLC)	TGI (HT29 colon)	TGI (KM20L2 colon)	TGI (M19-MEL melanoma)	TGI (MOLT-4 leukemia)	TGI (NCI/ADR-RES ovarian)	TGI (P388/ADR leukemia)	TGI (UACC-257 melanoma)	TGI (ACHN renal)	TGI (M14 melanoma)	TGI (SR leukemia)	TGI (RXF-631 renal)	GI50 (HT29 colon)	GI50 (M14 melanoma)	GI50 (M19-MEL melanoma)	GI50 (MOLT-4 leukemia)	GI50 (RXF-631 renal)	GI50 (UACC-257 melanoma)
O=C1CSc2sc(=S)sc2S1	> 100 µM	> 100 µM	> 100 µM	> 100 µM	> 100 µM	> 100 µM	> 100 µM	97.8 µM	> 100 µM										
CN(CCNC(=O)c1cn(C)c2c1ccc1cc(Cl)ccc12)CCNC(=O)c1cn(C)c2c1ccc1cc(Cl)ccc12	3.18 µM		3.62 µM			11.3 µM	3.6 µM		67.4 µM	9.73 µM	3 µM	38 µM							
Cc1ccc(NC(=O)CC(=O)n2nc(-c3ccccc3)c(N=Nc3ccccc3C(=O)O)c2-c2ccccc2)cc1	> 100 µM			> 100 µM	> 100 µM	> 100 µM				> 100 µM		> 100 µM	> 100 µM						
CC1C(O)[C@@]2(OC[C@@]34C(=O)CC5(O)[C@H](CCC6Cc7nc8c(nc7C[C@]65C)CC5CC[C@@H]6C7=C[C@H]9O[C@@]%10(O[C@@](C)(CO)C[C@@H]%10O)C(C)[C@@]9(O)[C@]7(C)[C@@H](O)CC6[C@]5(C)C8)C3=CC[C@H]4C2C)OC1(C)C (stereo partly specified)	0.542 µM	3.43 µM	0.061 µM	0.0669 µM	> 3.55 µM	< 0.000355 µM	> 3.55 µM	0.0266 µM	0.0212 µM										
COC[C@@H]1Cc2cc(OC)c3c(c2[C@H](c2ccc(OC)c(OC)c2)[C@H]1COC)OCO3	> 100 µM	> 100 µM	> 100 µM	> 100 µM	> 100 µM	> 100 µM			> 100 µM	> 100 µM	> 100 µM	> 100 µM	> 100 µM						
Nc1nccc2c1ncn2C1C=C(CO)C(O)C1O (stereo unspecified)	> 85.8 µM		> 1000 µM		> 1000 µM	> 1000 µM		40.8 µM	> 1000 µM		> 1000 µM		> 1000 µM	0.816 µM	7.18 µM	7.78 µM	0.768 µM	902 µM	3.28 µM
O=[P+](O)c1cccs1	> 100 µM	> 100 µM	> 100 µM	> 100 µM	> 100 µM	> 100 µM				> 100 µM	> 100 µM								
